Entries after “also recorded” stand apart in the source; their conditions may differ.
Legend:
[1] = system: hard and soft plaque of common and lower femoral artery; assay: Tissue immersion: hardness of plaque by manipulation with a forcep; design: species or system human; conditions: PBS pH 7.4
Text: A sample of human tissue from the common and lower femoral artery was received. It was stored in saline and refrigerated until use. Based upon visual and tactile observations, the arteries were approximately 7-8 mm in diameter and contained evidence of both hard and soft plaque. The soft plaque has a yellow fatty appearance that is distinguishable from the vessel wall. The hard plaque presents itself as hard pieces of material that can be pulled (with a forceps) from the soft plaque. Sections of the artery suitable for catheter work were segregated and stored in phosphate buffered saline (PBS), pH=7.4. From the remaining arterial sections, pieces of tissue containing both hard and soft plaque were removed. These pieces were either placed in a solution of PBS (pH=7.4), or dimeric naphthalimide, such as a compound of formula (V) (which is in PBS, pH=7.4). Prior to immersion in either solution the relative hardness of the plaque was evaluated via manual manipulation with a forcep. After a 5 minute soak in solution (typical exposure time), no difference in the samples soaked in PBS was noticed (control). […] The samples were then left in their respective solutions for an additional 90 minutes.

[2] = Storage stability of the naphthalimide dimer (solution and powder); type: physicochemical
Text: A preparative HPLC approach was used to isolate and specifically purify the compound of formula (V) dimer from the compound of formula (V) naphthalimide product produced from the ethanol crystallization. The HPLC method used was based on the purity method outlined above; however, method modifications were made to replace acetonitrile with ethanol and TFA with acetic acid in the mobile phase. The preparative separation utilized a C18 column (X-bridge, 10 μm, 19×250 mm, Waters). The mobile phase consisted of mobile phase A, 0.1% acetic acid (aq), and mobile phase B, 9:1 ethanol:water (0.1% v/v acetic acid). The column was pre-equilibrated at a starting mobile phase of 95% A:5% B for 20 minutes, at the start of the gradient was a 2 minute hold followed by a linear gradient to 90% B at 40 minutes and a 10 minute hold. An injection volume of 8.5 mL (12 mg/mL purified compound of formula (V)) and flow rate of 8.5 mL/minute were used as well as a detector wavelength of 440 nm. The compound of formula (V) fractions were collected and analyzed using the analytical purity method presented above. Fractions meeting a minimum purity criterion were combined and the solvent driven off by rotovapping the solution to dryness. […] Finally the product was quantitatively transferred from the round bottom flask to a freeze drying flask by dissolving the product in a minimal amount of deionized water. […]

[3] = system: plaque in diseased arteries from limb amputations; assay: Plaque penetration: diseased arteries soaked with composition, balloon and light activation, visual and histological examination; design: species or system human; conditions: 2 mg/mL in PBS pH 7.4, 5 minute soak
Description: Diseased arteries were obtained from limb amputations (leg) due to advanced Periperal Arterial Disease (PAD) from patients at a regional hospital. The received arteries were evaluated and chosen such that the diseased section was of reasonable size to accommodate the treatment catheter balloon length being used. The catheter balloon diameter used was also matched to the diameter of the artery and capable of achieving a 1:1.25 (ratio of artery diameter to balloon diameter) overstretch. The artery was laid in a petri dish and an angioplasty balloon was inserted and inflated for 60 seconds to impart the desired overstretch. While the angioplasty balloon was inflated a permanent marker was used to define the treatment zone (where the overstretch was imparted by the balloon) on the outer surface of the artery. The angioplasty balloon was deflated and removed. The inner lumen of the diseased artery was exposed to a plaque softening composition comprising a compound of formula (V) naphthalimide formulation (2 mg/mL in phosphate buffered saline, pH=7.4) for a period of 5 minutes. For the purpose of filling the artery, one end was clamped, the artery was held upright and a syringe was used to dispense the naphthalimide solution until the inner lumen was filled. The open end of the artery was then clamped and the soaking period of 5 minutes commenced. […] Arteries were cut open lengthwise and the treated section was evaluated by visual examination.
Prior to cutting the artery for visual examination samples from the treated and untreated sections were collected and preserved for histological examination. […] After this time, samples were stored in a −80° C. freezer until ready for further analysis. […] The crystalline nature of hard plaque is readily visible without staining. Under this magnification the crystalline structure of the calcific plaque was readily visible, as shown in FIG. 8 the dark area between the two lighter colored areas of the media. […]

artery = assay: Artery treated with composition, angioplasty and photoactivation: fissure observation; design: species or system human
Description: The tissue was an artery approximately 7.4 mm in diameter. An Ultra-thin SDS 8 mm×30 mm catheter was used to dilate the artery to 7.55 mm (approximately a 2% overstretch). A fissure or a possible dissection running down the length of the tissue sample was observed.
A section (6.5 cm in length) of artery was exposed to the composition for 5 minutes. An 80 mm catheter was used to impart a 25% overstretch to the artery. The angioplasty was followed by photoactivation at 1800 mW for 60 seconds using the same 80 mm catheter with a 60 mm light fiber centered in the catheter.
A catheter with an 80 mm treatment zone balloon was used however the photoactivating light fiber was only 60 mm in length. During activation it was noted that the light fiber was shifted distally in the catheter. This meant that the distal end of the artery was receiving photoactivation, however, the proximal end received little or no light. A fissure down the length of the artery was again observed.

Structure (SMILES): NCCOCCOCCN1C(=O)c2cccc3c(NCCOCCOCCNc4ccc5c6c(cccc46)C(=O)N(CCOCCOCCN)C5=O)ccc(c23)C1=O [compound of formula (V)]
- relative hardness of plaque ([1]; after a 5 minute soak): slight softening
- relative hardness of plaque ([1]; after an additional 90 minutes in solution): significantly softer and more pliable
- degradation of dimer in powder form ([2]; periods exceeding two years of storage in a dessicator at −20° C.): no evidence of degradation
- stability of dimer solution (excellent stability for periods up to) ([2]; solution at pH 7.4): up to 18 months
- observation of tacking of intimal flaps ([3]; 447 nm 625 mW/cm 60 seconds): tacking of intimal flaps
- visual observation of plaque softness in treated region ([3]; 447 nm 625 mW/cm 60 seconds): apparent softened plaque in the treated region; also recorded: more malleable
- calcium crystals under microscope, treated vs untreated sections ([3]; light activation): less evidence of calcium crystals
- repair of fissure (artery; angioplasty, then composition, distal part with adequate photoactivation): there appeared to be a seam indicating repair
- fissure in opened artery (artery; composition 5 minutes, then angioplasty 25% overstretch, photoactivation 1800 mW 60 seconds): no fissure observed
